Columns and labels:
[1] = Test Example 2: dissolution test, JP Pharmacopoeia dissolution test 2nd fluid (pH 6.8), paddle method; type: physicochemical; details: dissolution test 2nd fluid pH 6.8, 37 °C, paddle 100 rpm, after 120 min
[2] = Test Example 1: dissolution test, JP Pharmacopoeia dissolution test 1st fluid (pH 1.2), paddle method; type: physicochemical; details: dissolution test 1st fluid pH 1.2, 37 °C, paddle 100 rpm, at 60 min

Row | dissolution rate [1] | dissolution rate [2] | Compound
1 | ~80% | 90% | COc1cc2c(cc1NS(C)(=O)=O)OC(C)(C)[C@H](O)[C@H]2NCCc1ccccc1.Cl (relative stereo) [A形結晶, N−{(3R*,4S*)−3−ヒドロキシ−6−メトキシ−2,2−ジメチル−4−(フェネチルアミノ)クロマン−7−イル}メタンスルホンアミド塩酸塩]
2 | ~65% | 90% | COc1cc2c(cc1NS(C)(=O)=O)OC(C)(C)[C@H](O)[C@H]2NCCc1ccccc1 (relative stereo) [フリー体, N−{(3R*,4S*)−3−ヒドロキシ−6−メトキシ−2,2−ジメチル−4−(フェネチルアミノ)クロマン−7−イル}メタンスルホンアミド]
